# In ChEMBL document CHEMBL4007467, “Effects of 6-paradol, an unsaturated ketone from gingers, on cytochrome P450-mediated drug metabolism” (Bioorg Med Chem Lett, 2017):
# What was measured:
# Assay type in all cases: ADME
# [1] = biological target: T1, Cytochrome P450 1A2 (Homo sapiens, UniProt P05177); test: Inhibition of CYP1A2 in human liver microsomes using phenacetin as substrate preincubated for 10 mins followed by NADPH addition measured after 10 mins
# T1 sequence (P05177 whole entry): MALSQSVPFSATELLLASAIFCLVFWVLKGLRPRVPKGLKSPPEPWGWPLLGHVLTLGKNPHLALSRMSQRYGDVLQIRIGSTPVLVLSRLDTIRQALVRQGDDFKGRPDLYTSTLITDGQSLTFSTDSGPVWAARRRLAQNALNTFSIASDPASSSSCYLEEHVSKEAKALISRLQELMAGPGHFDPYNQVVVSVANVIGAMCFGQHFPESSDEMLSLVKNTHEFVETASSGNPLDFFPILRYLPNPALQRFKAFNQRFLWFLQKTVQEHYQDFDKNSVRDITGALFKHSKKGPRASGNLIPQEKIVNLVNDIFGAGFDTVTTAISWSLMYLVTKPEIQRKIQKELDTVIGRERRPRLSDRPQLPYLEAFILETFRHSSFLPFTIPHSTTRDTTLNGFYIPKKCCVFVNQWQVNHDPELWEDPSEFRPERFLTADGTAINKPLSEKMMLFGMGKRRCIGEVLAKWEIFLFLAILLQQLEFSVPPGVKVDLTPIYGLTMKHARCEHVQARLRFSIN
# [2] = biological target: T2, Cytochrome P450 2B6 (Homo sapiens, UniProt P20813); test: Inhibition of CYP2B6 in human liver microsomes using bupropion as substrate preincubated for 10 mins followed by NADPH addition measured after 20 mins
# T2 sequence (P20813 whole entry): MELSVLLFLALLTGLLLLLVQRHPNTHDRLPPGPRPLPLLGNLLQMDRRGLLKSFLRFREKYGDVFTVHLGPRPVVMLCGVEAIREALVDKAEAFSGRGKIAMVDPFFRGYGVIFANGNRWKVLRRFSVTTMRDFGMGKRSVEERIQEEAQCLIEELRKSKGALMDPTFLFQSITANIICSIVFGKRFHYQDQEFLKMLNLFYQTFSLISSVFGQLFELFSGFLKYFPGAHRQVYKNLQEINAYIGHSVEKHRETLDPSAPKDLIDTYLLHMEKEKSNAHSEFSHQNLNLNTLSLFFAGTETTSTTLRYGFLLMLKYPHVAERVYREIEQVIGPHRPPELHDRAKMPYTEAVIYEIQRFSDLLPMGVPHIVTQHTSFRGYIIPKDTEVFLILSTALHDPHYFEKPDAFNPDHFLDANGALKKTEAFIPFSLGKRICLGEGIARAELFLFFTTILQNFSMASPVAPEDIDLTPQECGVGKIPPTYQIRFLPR
# [3] = biological target: T3, Cytochrome P450 2C8 (Homo sapiens, UniProt P10632); test: Inhibition of CYP2C8 in human liver microsomes using amodiaquin as substrate preincubated for 10 mins followed by NADPH addition measured after 10 mins
# T3 sequence (P10632 whole entry): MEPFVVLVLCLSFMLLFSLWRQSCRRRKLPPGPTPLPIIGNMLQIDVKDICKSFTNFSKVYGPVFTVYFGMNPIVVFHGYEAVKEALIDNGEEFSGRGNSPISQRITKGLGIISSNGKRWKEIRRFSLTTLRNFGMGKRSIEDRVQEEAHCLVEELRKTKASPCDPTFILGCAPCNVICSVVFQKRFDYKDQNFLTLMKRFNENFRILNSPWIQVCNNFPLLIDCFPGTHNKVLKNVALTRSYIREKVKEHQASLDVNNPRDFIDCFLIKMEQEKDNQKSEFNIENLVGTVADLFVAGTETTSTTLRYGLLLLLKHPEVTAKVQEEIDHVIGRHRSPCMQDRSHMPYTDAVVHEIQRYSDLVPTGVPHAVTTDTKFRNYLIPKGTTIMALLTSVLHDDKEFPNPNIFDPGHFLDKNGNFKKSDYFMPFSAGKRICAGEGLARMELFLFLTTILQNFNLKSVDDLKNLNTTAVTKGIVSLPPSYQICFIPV
# [4] = biological target: T4, Cytochrome P450 2C9 (Homo sapiens, UniProt P11712); test: Inhibition of CYP2C9 in human liver microsomes using diclofenac as substrate preincubated for 10 mins followed by NADPH addition measured after 7 mins
# [5] = biological target: T5, Cytochrome P450 2C19 (Homo sapiens, UniProt P33261); test: Inhibition of CYP2C19 in human liver microsomes using (S)-mephenytoin as substrate preincubated for 10 mins followed by NADPH addition measured after 40 mins
# [6] = biological target: T6, Cytochrome P450 3A4 (Homo sapiens, UniProt P08684); test: Inhibition of CYP3A4 in human liver microsomes using testosterone as substrate preincubated for 10 mins followed by NADPH addition measured after 10 mins
# [7] = biological target: T7, Cytochrome P450 2A6 (Homo sapiens, UniProt P11509); test: Inhibition of CYP2A6 in human liver microsomes using Coumarin as substrate preincubated for 10 mins followed by NADPH addition measured after 15 mins
# T7 sequence (P11509 whole entry): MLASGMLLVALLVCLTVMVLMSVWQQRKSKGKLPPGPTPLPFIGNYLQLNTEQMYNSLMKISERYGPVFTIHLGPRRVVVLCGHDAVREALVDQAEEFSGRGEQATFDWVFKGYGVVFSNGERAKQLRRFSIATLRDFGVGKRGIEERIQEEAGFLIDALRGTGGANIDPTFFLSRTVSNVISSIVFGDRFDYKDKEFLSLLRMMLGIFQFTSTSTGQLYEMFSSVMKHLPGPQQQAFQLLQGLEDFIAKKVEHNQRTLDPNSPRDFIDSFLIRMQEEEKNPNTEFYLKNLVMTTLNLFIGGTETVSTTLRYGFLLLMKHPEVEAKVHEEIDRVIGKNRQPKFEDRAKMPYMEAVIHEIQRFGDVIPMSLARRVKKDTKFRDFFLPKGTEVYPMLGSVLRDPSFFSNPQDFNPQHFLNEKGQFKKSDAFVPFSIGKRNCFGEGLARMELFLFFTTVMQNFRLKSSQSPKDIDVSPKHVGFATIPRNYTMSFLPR
# [8] = biological target: T8, Cytochrome P450 2D6 (Homo sapiens, UniProt P10635); test: Inhibition of CYP2D6 in human liver microsomes using dextromethorphan as substrate preincubated for 10 mins followed by NADPH addition measured after 15 mins
# [9] = biological target: T9, Cytochrome P450 2E1 (Homo sapiens, UniProt P05181); test: Inhibition of CYP2E1 in human liver microsomes using chlorzoxazone as substrate preincubated for 10 mins followed by NADPH addition measured after 20 mins
# [10] = biological target: T4, Cytochrome P450 2C9; test: Inhibition of recombinant human CYP2C9 expressed in baculosomes using Vivid OOMR substrate red measured every 30 sec for 30 mins by fluorescence assay
# [11] = biological target: T5, Cytochrome P450 2C19; test: Inhibition of recombinant human CYP2C19 expressed in baculosomes using Vivid EOMCC substrate blue measured every 30 sec for 30 mins by fluorescence assay
# [12] = biological target: T6, Cytochrome P450 3A4; test: Inhibition of recombinant human CYP3A4 expressed in baculosomes using Vivid DBOMF substrate green measured every 30 sec for 30 mins by fluorescence assay
# [13] = biological target: T6, Cytochrome P450 3A4; test: Inhibition of recombinant human CYP3A4 expressed in baculosomes using Vivid BOMR substrate red measured every 30 sec for 30 mins by fluorescence assay
# [14] = biological target: T6, Cytochrome P450 3A4; test: Inhibition of recombinant human CYP3A4 expressed in baculosomes using Vivid BOMCC substrate blue measured every 30 sec for 30 mins by fluorescence assay
# [15] = biological target: T8, Cytochrome P450 2D6; test: Inhibition of recombinant human CYP2D6 expressed in baculosomes using Vivid EOMCC substrate blue measured every 30 sec for 30 mins by fluorescence assay
# [16] = biological target: T6, Cytochrome P450 3A4; test: Inhibition of CYP3A4 in human liver microsomes using midazolam as substrate
# [17] = biological target: T6, Cytochrome P450 3A4; test: Inhibition of CYP3A4 in human liver microsomes using midazolam as substrate preincubated for 10 mins followed by NADPH addition measured after 5 mins
# [18] = biological target: T1, Cytochrome P450 1A2; test: Inhibition of CYP1A2 in human liver microsomes using phenacetin as substrate by HPLC analysis
# [19] = biological target: T4, Cytochrome P450 2C9; test: Inhibition of CYP2C9 in human liver microsomes using tolbutamide as substrate by HPLC analysis
# [20] = biological target: T5, Cytochrome P450 2C19; test: Inhibition of CYP2C19 in human liver microsomes using (S)-mephenytoin as substrate by HPLC analysis
# [21] = biological target: T9, Cytochrome P450 2E1; test: Inhibition of CYP2E1 in human liver microsomes using chlorzoxazone as substrate by HPLC analysis
# T6 sequence (P08684 whole entry): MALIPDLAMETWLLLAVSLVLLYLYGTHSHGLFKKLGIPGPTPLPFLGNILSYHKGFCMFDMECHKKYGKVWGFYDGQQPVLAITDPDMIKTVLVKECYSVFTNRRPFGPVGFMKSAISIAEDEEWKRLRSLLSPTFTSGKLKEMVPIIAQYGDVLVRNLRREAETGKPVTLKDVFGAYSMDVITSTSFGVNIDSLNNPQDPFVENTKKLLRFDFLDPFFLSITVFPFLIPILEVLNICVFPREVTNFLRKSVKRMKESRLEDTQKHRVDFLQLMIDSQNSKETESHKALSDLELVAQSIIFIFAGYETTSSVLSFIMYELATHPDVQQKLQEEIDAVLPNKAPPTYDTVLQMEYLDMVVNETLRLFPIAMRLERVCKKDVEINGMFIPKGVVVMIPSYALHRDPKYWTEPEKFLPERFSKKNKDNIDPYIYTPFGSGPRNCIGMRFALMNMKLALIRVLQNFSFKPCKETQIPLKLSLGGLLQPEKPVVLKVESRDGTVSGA
# T8 sequence (P10635 whole entry): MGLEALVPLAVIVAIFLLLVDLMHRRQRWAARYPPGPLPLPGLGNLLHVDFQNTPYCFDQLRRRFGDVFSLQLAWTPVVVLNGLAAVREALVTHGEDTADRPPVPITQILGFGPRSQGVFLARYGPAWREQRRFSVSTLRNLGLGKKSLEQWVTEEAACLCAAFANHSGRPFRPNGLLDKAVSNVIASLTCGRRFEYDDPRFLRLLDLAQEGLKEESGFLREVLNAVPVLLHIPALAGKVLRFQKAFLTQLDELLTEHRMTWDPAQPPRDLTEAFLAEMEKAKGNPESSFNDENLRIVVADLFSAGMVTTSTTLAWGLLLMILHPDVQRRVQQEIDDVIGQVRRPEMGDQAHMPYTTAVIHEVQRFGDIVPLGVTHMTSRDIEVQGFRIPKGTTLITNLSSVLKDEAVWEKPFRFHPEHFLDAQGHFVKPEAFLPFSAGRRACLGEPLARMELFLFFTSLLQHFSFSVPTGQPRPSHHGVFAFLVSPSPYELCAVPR
# T9 sequence (P05181 whole entry): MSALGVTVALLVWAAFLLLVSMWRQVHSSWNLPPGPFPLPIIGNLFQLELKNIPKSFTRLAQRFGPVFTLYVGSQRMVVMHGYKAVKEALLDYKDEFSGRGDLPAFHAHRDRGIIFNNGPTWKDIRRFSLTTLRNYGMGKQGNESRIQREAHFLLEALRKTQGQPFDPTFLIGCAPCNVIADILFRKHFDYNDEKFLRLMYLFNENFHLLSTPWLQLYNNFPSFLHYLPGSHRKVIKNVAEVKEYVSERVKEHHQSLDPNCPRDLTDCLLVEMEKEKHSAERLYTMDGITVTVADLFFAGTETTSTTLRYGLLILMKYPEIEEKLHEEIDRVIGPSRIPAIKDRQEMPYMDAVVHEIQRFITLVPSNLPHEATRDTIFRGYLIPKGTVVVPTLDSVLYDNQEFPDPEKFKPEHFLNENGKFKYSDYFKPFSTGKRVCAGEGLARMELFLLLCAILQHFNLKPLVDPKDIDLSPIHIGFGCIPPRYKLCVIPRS
# T5 sequence (P33261 whole entry): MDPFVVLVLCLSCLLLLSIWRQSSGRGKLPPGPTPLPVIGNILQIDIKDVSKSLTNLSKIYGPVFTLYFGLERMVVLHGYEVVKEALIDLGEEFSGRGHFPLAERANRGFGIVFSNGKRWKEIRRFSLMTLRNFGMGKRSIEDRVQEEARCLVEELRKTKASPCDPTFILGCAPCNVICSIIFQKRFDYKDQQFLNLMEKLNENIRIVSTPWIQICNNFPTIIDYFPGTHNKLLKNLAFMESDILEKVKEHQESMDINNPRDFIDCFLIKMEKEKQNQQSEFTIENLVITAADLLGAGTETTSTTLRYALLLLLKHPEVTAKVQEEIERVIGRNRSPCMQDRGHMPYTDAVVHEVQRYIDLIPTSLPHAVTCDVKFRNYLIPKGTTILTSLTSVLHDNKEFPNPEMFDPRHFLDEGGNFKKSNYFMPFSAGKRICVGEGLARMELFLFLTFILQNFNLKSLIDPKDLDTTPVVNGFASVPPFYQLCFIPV
# T4 sequence (P11712 whole entry): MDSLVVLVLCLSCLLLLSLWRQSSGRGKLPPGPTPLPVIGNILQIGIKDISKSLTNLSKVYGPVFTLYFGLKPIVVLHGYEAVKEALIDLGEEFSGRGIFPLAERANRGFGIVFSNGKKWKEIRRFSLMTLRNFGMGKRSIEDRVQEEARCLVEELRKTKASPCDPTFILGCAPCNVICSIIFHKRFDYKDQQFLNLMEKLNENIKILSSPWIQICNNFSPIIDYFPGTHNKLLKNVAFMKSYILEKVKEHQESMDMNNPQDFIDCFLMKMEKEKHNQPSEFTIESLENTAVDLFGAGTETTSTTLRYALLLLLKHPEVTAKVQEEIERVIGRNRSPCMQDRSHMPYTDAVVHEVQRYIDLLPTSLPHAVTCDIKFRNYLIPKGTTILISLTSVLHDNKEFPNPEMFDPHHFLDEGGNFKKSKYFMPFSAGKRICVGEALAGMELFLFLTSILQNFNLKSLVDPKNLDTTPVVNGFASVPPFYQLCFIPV
IC50 [1] [µM],IC50 [2] [µM],IC50 [3] [µM],IC50 [4] [µM],IC50 [5] [µM],IC50 [6] [µM],IC50 [7] [µM],IC50 [8] [µM],IC50 [9] [µM],IC50 [10] [µM],IC50 [11] [µM],IC50 [12] [µM],IC50 [13] [µM],IC50 [14] [µM],Structure (SMILES),also measured
27.3,8.1,2.2,8.7,8.1,8.1,59,74.5,93.2,6.8,12.5,11.6,10.5,8.7,CCCCCCC[C@H](O)CC(=O)CCc1ccc(O)c(OC)c1,IC50 [15]: 42.7 µM
–,4.3,2,7.5,6.6,7.1,98.3,54.9,–,16.3,13.6,21.8,24.9,20.8,CCCCCCCCC[C@H](O)CC(=O)CCc1ccc(O)c(OC)c1,–
2.5,5.8,2.9,3.3,–,8.3,83.3,87,76.1,–,–,–,4,–,CCCCC/C=C/C(=O)CCc1ccc(O)c(OC)c1 [SHOGAOL],IC50 [17]: 65.2 µM; IC50 [18]: 20.7 µM; IC50 [19]: 29.2 µM; IC50 [20]: 18.8 µM; IC50 [21]: 99.6 µM

Structure (SMILES),IC50 [1] [µM],IC50 [2] [µM],IC50 [3] [µM],IC50 [4] [µM],IC50 [5] [µM],IC50 [6] [µM],IC50 [7] [µM],IC50 [8] [µM],IC50 [9] [µM],IC50 [10] [µM],IC50 [11] [µM],IC50 [12] [µM],IC50 [13] [µM],IC50 [14] [µM],also measured
CCCCC[C@H](O)CC(=O)CCc1ccc(O)c(OC)c1 [GINGEROL],–,40.8,–,–,–,–,–,–,–,12.1,30.7,32,42.9,21.8,IC50 [16]: 73.4 µM
